Results reported in ChEMBL document CHEMBL5375968, “Peptide TK-HR from the Skin of Chinese Folk Medicine Frog Hoplobatrachus Rugulosus Accelerates Wound Healing via the Activation of the Neurokinin-1 Receptor” (J Med Chem, 2023).
Activity calls are given as the source filed them. No cut-off for these calls is given here.

Key:
RAW264.7 [1] = assay: Induction of phagocytosis in mouse RAW264.7 cells cultured with Escherichia coli ATCC 25922 assessed as number of surviving engulfed bacteria at 10 uM incubated for 24 hrs followed by bacterial exposure for 1 hr and further treated with gentamycin for 2 hrs by plate counting method (reference value: 37); type: functional
HaCaT [2] = assay: Induction of cell migration in human HaCaT cells assessed as actin stress fiber formation at peripheral side of cytoplasmic membrane at 20 uM measured after 24 hrs by immunofluorescence microscopy; type: functional, cell-based
Splenic fibroblast [3] = assay: Effect on cell migration in human […] fibroblasts at 20 uM incubated upto 48 hrs by scratch healing assay; type: functional, cell-based
Aorta = assay: Ex vivo angiogenic activity in C57BL/6 mouse aortic ring assessed as increase in sprouting by measuring vessel outgrowth area at 10 uM measured for 7 days by microscopic analysis relative to control; type: functional; settings: time 7 day
RAW264.7 [4] = assay: Upregulation of phosphorylated Smad2 level in Aprepitant-treated mouse RAW264.7 cells at 2.5 to 20 uM incubated for 4 hrs by Western blot analysis; type: functional, cell-based; settings: dose 2.5-20 µM
HaCaT [5] = assay: Induction of cell migration in human HaCaT cells assessed as formation of cytoplasmic protrusions at 20 uM measured after 24 hrs by immunofluorescence microscopy; type: functional, cell-based
HaCaT [6] = assay: Induction of cell migration in Aprepitant-treated human HaCaT cells assessed as healing rate at 20 uM measured after 24 hrs by scratch healing assay (reference value: 36.8 %); type: functional
[7] = Toxicity in BALB/c mouse model of full-thickness wounds assessed as adverse effect in behaviour at 50 to 200 ug/ml, TOP bid measured upto 8 days; settings: in vivo, topical_or_ocular, 192 h, dose 50-200 µg/ml, time < 8 day
Neutrophil [8] = assay: Induction of chemotaxis in BALB/c mouse neutrophils assessed as increase in ratio of cell polarization at 40 uM measured for 15 mins by Zigmond-chamber based microscopy (reference value: 14.6 %); type: functional; settings: 0.25 h
Neutrophil [9] = assay: Induction of phagocytosis in BALB/c mouse neutrophils cultured with CFSE-labeled Staphylococcus aureus ATCC 25923 at 10 uM pretreated for 1 hr followed by bacterial exposure measured after 1.5 hrs by fluorescence microscopy; type: functional, cell-based; settings: time 2.5 hrs
[10] = Induction of wound healing in BALB/c mouse model of full-thickness wounds assessed as increase in collagen deposition in wound sites at 50 to 200 ug/ml, TOP bid measured after 8 days by Masson's Trichome staining based analysis relative to control; type: functional; settings: dose 50-200 µg/ml, time 8 day, at 50 to 200 µg/mL
[11] = (§1) Induction of wound healing in BALB/c mouse model of full-thickness wounds assessed as recruitment of M1-type macrophages in wound skin at 50 ug/ml, TOP bid measured after 2 days by flow cytometry (reference value: 60.9 %); type: functional; settings: dose 50 µg/ml, time 2 day
Mus musculus [12] = species on record: Mus musculus; assay: as §1; type: functional; settings: dose 50.0 µg/ml, time 2.0 day
Mus musculus [13] = species on record: Mus musculus; assay: Induction of wound healing in BALB/c mouse model of full-thickness wounds assessed as increase in TGF-1beta production in wound skin at 50 to 200 ug/ml, TOP bid measured after 8 days by ELISA; type: functional; settings: dose 50-200 µg/ml, time 8.0 day
HaCaT [14] = assay: Induction of cell migration in Mitomycin C-treated human HaCaT cells assessed as healing rate at 20 uM measured after 24 hrs by scratch healing assay (reference value: 21.3 %); type: functional
RAW264.7 [15] = assay: Effect on total Smad3 level in mouse RAW264.7 cells at 2.5 to 20 uM incubated for 4 hrs by Western blot analysis; type: functional, cell-based; settings: dose 2.5-20 µM
NIH3T3 = assay: Effect on TGF-1beta production in mouse 3T3 cells at 5 to 40 uM incubated for 24 hrs by ELISA; type: functional, cell-based; settings: dose 5-40 µM
RAW264.7 [16] = assay: Induction of phagocytosis in mouse RAW264.7 cells assessed as increase in neutral red dye uptake by measuring optical density at 540 nm at 10 uM incubated for 24 hrs followed by dye addition measured after 4 hrs by absorbance based assay (reference value: 0.073); type: functional; settings: time 28 hrs
RAW264.7 [17] = assay: Induction of phagocytosis in mouse RAW264.7 cells cultured with Escherichia coli ATCC 25922 assessed as number of engulfed bacteria at 5 uM incubated for 24 hrs followed by bacterial exposure measured after 1 hr by plate counting method (reference value: 225); type: functional; settings: time 25 hrs
HUVEC [18] = assay: Induction of cell migration in Mitomycin C-treated HUVEC cells assessed as healing rate at 20 uM measured after 24 hrs by scratch healing assay (reference value: 30.2 %); type: functional, Homo sapiens
RAW264.7 [19] = assay: Upregulation of phosphorylated JNK level in Aprepitant-treated mouse RAW264.7 cells at 2.5 to 20 uM incubated for 4 hrs by Western blot analysis; type: functional, cell-based; settings: dose 2.5-20 µM
Mus musculus [20] = species on record: Mus musculus; assay: Induction of wound healing in BALB/c mouse model of full-thickness wounds assessed as increase in TNF-alpha level in wound skin at 50 ug/ml, TOP bid measured after 2 days by ELISA; type: functional; settings: dose 50.0 µg/ml, time 2.0 day
Neutrophil [21] = assay: Induction of wound healing in BALB/c mouse model of full-thickness wounds assessed as increase in number of neutrophil infiltration in wound skin at 50 ug/ml, TOP bid measured after 2 days by IHC analysis; type: functional, cell-based; settings: dose 50.0 µg/ml, time 2.0 day
[22] = Induction of wound healing in BALB/c mouse model of full-thickness wounds at 50 ug/ml, TOP bid measured after 6 days (reference value: 71.7 %); type: functional; settings: dose 50 µg/ml, time 6 day
RAW264.7 [23] = assay: Effect on total p38 level in mouse RAW264.7 cells at 2.5 to 20 uM incubated for 4 hrs by Western blot analysis; type: functional, cell-based; settings: dose 2.5-20 µM
Mus musculus [24] = species on record: Mus musculus; assay: Induction of wound healing in BALB/c mouse model of full-thickness wounds assessed as increase in recruitment of total macrophages in wound skin at 50 ug/ml, TOP bid measured after 2 days by IHC analysis; type: functional; settings: dose 50.0 µg/ml, time 2.0 day
RAW264.7 [25] = assay: Effect on total ERK level in mouse RAW264.7 cells at 2.5 to 20 uM incubated for 4 hrs by Western blot analysis; type: functional, cell-based; settings: dose 2.5-20 µM
RAW264.7 [26] = assay: Upregulation of phosphorylated ERK level in Aprepitant-treated mouse RAW264.7 cells at 2.5 to 20 uM incubated for 4 hrs by Western blot analysis; type: functional, cell-based; settings: dose 2.5-20 µM
Splenic fibroblast [27] = assay: Effect on TGF-1beta production in human […] fibroblasts at 5 to 40 uM incubated for 24 hrs by ELISA; type: functional, cell-based; settings: dose 5-40 µM
HUVEC [28] = assay: Angiogenic activity in HUVEC cells assessed as increase in tube formation at 10 uM measured for 4 hrs by microscopic analysis relative to control; type: functional, Homo sapiens
[29] = Induction of wound healing in BALB/c mouse model of full-thickness wounds at 200 ug/ml, TOP bid measured after 2 days (reference value: 30.4 %); type: functional; settings: dose 200 µg/ml, time 2 day
Neutrophil [30] = assay: Induction of ROS production in BALB/c mouse neutrophils at 10 to 20 uM incubated for 2 hrs by DCFH-DA staining based analysis; type: functional, cell-based; settings: dose 10-20 µM
RAW264.7 [31] = assay: Effect on total Smad2 level in mouse RAW264.7 cells at 2.5 to 20 uM incubated for 4 hrs by Western blot analysis; type: functional, cell-based; settings: dose 2.5-20 µM

Question: For H-KPNPDRFYGLM-NH2, which Activity (RAW264.7 [1]) is on record?
Answer: 25

Question: And the Activity (HaCaT [2])?
Answer: Active

Question: And the Activity (Splenic fibroblast [3])?
Answer: inactive

Question: What about the Activity (Aorta) of the same substance?
Answer: 117.3%

Question: What about the Activity (RAW264.7 [4]) of the same substance?
Answer: inactive

Question: And the Activity (HaCaT [5])?
Answer: Active

Question: What about the Activity (HaCaT [6]) of the same substance?
Answer: 41.7%

Question: And the Activity [7]?
Answer: Non-Toxic

Question: And the Activity (Neutrophil [8])?
Answer: 50.4%

Question: And the Activity (Neutrophil [9])?
Answer: Active

Question: What about the Activity [10] of the same substance?
Answer: 197%

Question: And the Activity [11]?
Answer: 79.2%

Question: What about the Activity (Mus musculus [12]) of the same substance?
Answer: Active

Question: What about the Activity (Mus musculus [13]) of the same substance?
Answer: inactive

Question: And the Activity (HaCaT [14])?
Answer: 40.2%

Question: And the Activity (RAW264.7 [15])?
Answer: inactive

Question: What about the Activity (NIH3T3) of the same substance?
Answer: inactive

Question: What about the OD (RAW264.7 [16]) of the same substance?
Answer: 0.107

Question: And the Activity (RAW264.7 [17])?
Answer: 302

Question: And the Activity (HUVEC [18])?
Answer: 43.7%

Question: And the Activity (RAW264.7 [19])?
Answer: inactive

Question: And the Activity (Mus musculus [20])?
Answer: Active

Question: And the Activity (Neutrophil [21])?
Answer: Active

Question: What about the Activity [22] of the same substance?
Answer: 86.6%

Question: What about the Activity (RAW264.7 [23]) of the same substance?
Answer: inactive

Question: And the Activity (Mus musculus [24])?
Answer: Active

Question: What about the Activity (RAW264.7 [25]) of the same substance?
Answer: inactive

Question: What about the Activity (RAW264.7 [26]) of the same substance?
Answer: inactive

Question: What about the Activity (Splenic fibroblast [27]) of the same substance?
Answer: inactive

Question: What about the Activity (HUVEC [28]) of the same substance?
Answer: 139.5%

Question: What about the Activity [29] of the same substance?
Answer: 52.8%

Question: What about the Activity (Neutrophil [30]) of the same substance?
Answer: Active

Question: And the Activity (RAW264.7 [31])?
Answer: inactive
